Experimental data as given in ChEMBL document CHEMBL5360557 (Eur J Med Chem, 2023).

Assays:
Acetylcholinesterase [1] = target: T1, Acetylcholinesterase (Homo sapiens, UniProt P22303); assay: Inhibition of recombinant human AChE using acetylthiocholine iodide as substrate preincubated with enzyme for 5 mins followed by substrate addition and measured after 1 min by Ellman's method
Cholinesterase [2] = target: T2, Cholinesterase (Homo sapiens, UniProt P06276); assay: Inhibition of recombinant human BuChE using butyrylthiocholine iodide as substrate preincubated with enzyme for 5 mins followed by substrate addition and measured after 1 min by Ellman's method
Cholinesterase [3] = target: T2, Cholinesterase; assay: Inhibition of recombinant human BuChE using butyrylthiocholine iodide as substrate at 10 uM preincubated with enzyme for 5 mins followed by substrate addition and measured after 1 min by Ellman's method relative to control; details: time 6.0 min
[4] = Cytotoxicity against human HepG2 cells assessed as inhibition of cell growth incubated for 24 hrs by MTT assay; type: toxicity, cell-based
[5] = Cytotoxicity against human SH-SY5Y cells assessed as inhibition of cell growth incubated for 24 hrs by MTT assay; type: toxicity, cell-based
Cholinesterase [6] = target: T2, Cholinesterase; assay: Inhibition of human BuChE using butyrylthiocholine iodide as substrate incubated for 1 min by spectrophotometry based Ellman's method
Acetylcholinesterase [7] = target: T1, Acetylcholinesterase; assay: Inhibition of human AChE using acetylthiocholine iodide as substrate incubated for 1 min by spectrophotometry based Ellman's method
in vitro = details: PAMPA
Description: Permeability of the compound incubated for 3 to 6 hrs by PAMPA-BBB assay

Homo sapiens = organism: Homo sapiens; assay: Selectivity ratio of IC50 for inhibition of human AChE using acetylthiocholine as substrate to IC50 for inhibition of human BuChE using butyrylthiocholine iodide as substrate

T1 sequence (P22303 whole entry): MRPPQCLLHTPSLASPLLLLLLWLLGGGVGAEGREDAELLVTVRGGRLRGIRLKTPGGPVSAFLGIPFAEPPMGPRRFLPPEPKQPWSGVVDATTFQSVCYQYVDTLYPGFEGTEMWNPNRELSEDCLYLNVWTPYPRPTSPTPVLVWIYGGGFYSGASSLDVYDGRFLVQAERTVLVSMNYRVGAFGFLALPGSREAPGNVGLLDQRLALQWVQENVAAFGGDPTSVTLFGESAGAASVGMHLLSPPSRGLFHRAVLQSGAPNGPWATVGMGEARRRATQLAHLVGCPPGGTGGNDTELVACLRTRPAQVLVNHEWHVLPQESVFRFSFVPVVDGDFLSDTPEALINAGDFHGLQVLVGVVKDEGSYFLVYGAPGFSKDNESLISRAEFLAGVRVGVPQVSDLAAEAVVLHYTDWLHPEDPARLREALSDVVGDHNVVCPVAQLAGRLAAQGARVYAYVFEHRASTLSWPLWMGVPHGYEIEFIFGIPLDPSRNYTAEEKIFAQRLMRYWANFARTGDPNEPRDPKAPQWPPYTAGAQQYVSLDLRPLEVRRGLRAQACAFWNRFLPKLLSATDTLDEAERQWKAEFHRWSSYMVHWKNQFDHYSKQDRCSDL
T2 sequence (P06276 whole entry): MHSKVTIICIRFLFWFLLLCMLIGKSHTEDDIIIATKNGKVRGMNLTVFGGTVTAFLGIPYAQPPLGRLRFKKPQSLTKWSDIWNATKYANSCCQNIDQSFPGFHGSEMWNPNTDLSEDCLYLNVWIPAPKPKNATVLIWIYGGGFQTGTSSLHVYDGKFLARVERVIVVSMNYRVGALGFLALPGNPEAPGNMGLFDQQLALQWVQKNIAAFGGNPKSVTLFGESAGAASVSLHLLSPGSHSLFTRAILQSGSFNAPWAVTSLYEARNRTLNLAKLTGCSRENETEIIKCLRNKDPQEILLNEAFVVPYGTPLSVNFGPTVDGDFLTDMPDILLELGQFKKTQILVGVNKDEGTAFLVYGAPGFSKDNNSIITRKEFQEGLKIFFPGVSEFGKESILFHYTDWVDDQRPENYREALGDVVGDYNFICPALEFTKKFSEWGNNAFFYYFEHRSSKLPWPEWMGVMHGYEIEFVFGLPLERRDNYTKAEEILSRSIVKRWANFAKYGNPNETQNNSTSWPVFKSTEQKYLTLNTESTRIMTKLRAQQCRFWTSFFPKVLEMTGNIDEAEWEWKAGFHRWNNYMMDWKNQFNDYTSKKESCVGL

Q: Which results are given for `C#CCN(CCc1ccc(O)cc1)Cc1cccc(OC)c1OCc1ccccc1`?
A: IC50 (Acetylcholinesterase [1]): > 10 µM; IC50 (Cholinesterase [2]): 1.9 µM; inhibition (Cholinesterase [3]): 78%

Q: For `CCOc1ccc(CCN(CC)Cc2cccc(OC)c2OCc2ccccc2)cc1`, which IC50 (Acetylcholinesterase [1]) is on record?
A: > 10 µM

Q: And the IC50 (Cholinesterase [2])?
A: 0.9 µM

Q: And the inhibition (Cholinesterase [3])?
A: 84%

Q: With `CCN(CCc1ccccc1)Cc1cccc(OC)c1OCc1ccccc1` as the compound, how does the IC50 (Acetylcholinesterase [1]) read?
A: > 10 µM

Q: And the IC50 (Cholinesterase [2])?
A: 0.6 µM

Q: What about the inhibition (Cholinesterase [3]) of the same compound?
A: 91%

Q: Which IC50 at 24 h [4] does the source give for `COc1ccc2c3c1O[C@H]1C[C@@H](O)C=C[C@@]31CCN(C)C2` [GALANTAMINE] here?
A: 4200 µM

Q: What about the IC50 at 24 h [5] of the same compound?
A: 4700 µM

Q: With `CCN(CCCc1ccccc1)Cc1cccc(OC)c1OCc1ccccc1` as the compound, how does the IC50 (Acetylcholinesterase [1]) read?
A: > 10 µM

Q: What about the IC50 at 24 h [4] of the same compound?
A: 23 µM

Q: What about the IC50 at 24 h [5] of the same compound?
A: 34 µM

Q: What about the IC50 (Cholinesterase [2]) of the same compound?
A: 0.06 µM

Q: What about the inhibition (Cholinesterase [3]) of the same compound?
A: 98%

Q: What does the source list for `COc1cc(CN(C)CCc2ccc(O)cc2)c(-c2cccc3c2N(C)CC3)cc1OC`?
A: IC50 (Cholinesterase [6]): 0.91 µM; IC50 (Acetylcholinesterase [7]): > 100 µM

Q: With `COc1ccccc1CCNCc1cccc(OC)c1OCc1ccccc1` as the compound, how does the IC50 (Acetylcholinesterase [1]) read?
A: > 10 µM

Q: And the IC50 (Cholinesterase [2])?
A: 0.8 µM

Q: What about the inhibition (Cholinesterase [3]) of the same compound?
A: 88%

Q: Which IC50 (Acetylcholinesterase [1]) does the source give for `COc1cccc(CNCC(C)c2ccccc2)c1OCc1ccccc1` (stereo not given) here?
A: > 10 µM

Q: And the IC50 (Cholinesterase [2])?
A: 0.16 µM

Q: And the inhibition (Cholinesterase [3])?
A: 96%

Q: With `CN(CCc1ccc(O)cc1)Cc1cc2c(cc1-c1cccc3c1N(C)CC3)OCO2` as the compound, how does the IC50 (Acetylcholinesterase [7]) read?
A: > 100 µM

Q: What does the source list for `CCN(CCc1cccc(OC)c1)Cc1cccc(OC)c1OCc1ccccc1`?
A: IC50 (Acetylcholinesterase [1]): > 10 µM; IC50 (Cholinesterase [2]): 0.9 µM; inhibition (Cholinesterase [3]): 88%

Q: Which IC50 (Acetylcholinesterase [1]) does the source give for `COc1cccc(CNCCCc2ccccc2)c1OCc1ccccc1` here?
A: > 10 µM

Q: What about the Papp (in vitro) of the same compound?
A: 21 ×10⁻⁶ cm/s

Q: And the IC50 at 24 h [5]?
A: 8.9 µM

Q: What about the IC50 (Cholinesterase [2]) of the same compound?
A: 0.09 µM

Q: And the inhibition (Cholinesterase [3])?
A: 97%

Q: Which IC50 (Acetylcholinesterase [1]) does the source give for `C=CCN(CCc1ccc(O)cc1)Cc1cccc(OC)c1OCc1ccccc1` here?
A: > 10 µM

Q: And the IC50 (Cholinesterase [2])?
A: 0.3 µM

Q: What about the inhibition (Cholinesterase [3]) of the same compound?
A: 96%

Q: Which IC50 (Acetylcholinesterase [1]) does the source give for `C#CCN(CCc1cccc(OC)c1)Cc1cccc(OC)c1OCc1ccccc1` here?
A: > 10 µM

Q: And the IC50 (Cholinesterase [2])?
A: > 10 µM

Q: What about the inhibition (Cholinesterase [3]) of the same compound?
A: 28%

Q: With `CCCN(CCc1cccc(OC)c1)Cc1cccc(OC)c1OCc1ccccc1` as the compound, how does the IC50 (Acetylcholinesterase [1]) read?
A: > 10 µM

Q: And the IC50 (Cholinesterase [2])?
A: 0.9 µM

Q: What about the inhibition (Cholinesterase [3]) of the same compound?
A: 89%

Q: With `C#CCN(CCc1ccccc1)Cc1cccc(OC)c1OCc1ccccc1` as the compound, how does the IC50 (Acetylcholinesterase [1]) read?
A: > 10 µM

Q: And the IC50 (Cholinesterase [2])?
A: > 10 µM

Q: What about the inhibition (Cholinesterase [3]) of the same compound?
A: 46%

Q: Which IC50 (Acetylcholinesterase [1]) does the source give for `COc1cccc(CNCCc2ccccc2)c1OCc1ccccc1` here?
A: > 10 µM

Q: What about the IC50 (Cholinesterase [2]) of the same compound?
A: 0.4 µM

Q: What about the inhibition (Cholinesterase [3]) of the same compound?
A: 93%

Q: What does the source list for `CCN(CCc1ccc(O)cc1)Cc1cccc(OC)c1OCc1ccccc1`?
A: IC50 (Acetylcholinesterase [1]): > 10 µM; IC50 (Cholinesterase [2]): 0.3 µM; inhibition (Cholinesterase [3]): 94%

Q: Which results are given for `COc1ccc(CCN(C)Cc2cccc(OC)c2OCc2ccccc2)cc1`?
A: IC50 (Acetylcholinesterase [1]): > 10 µM; IC50 (Cholinesterase [2]): 3.2 µM; inhibition (Cholinesterase [3]): 76%

Q: Which results are given for `C=CCCN(CCCc1ccccc1)Cc1cccc(OC)c1OCc1ccccc1`?
A: IC50 (Acetylcholinesterase [1]): > 10 µM; IC50 at 24 h [4]: 92 µM; Papp (in vitro): 33 ×10⁻⁶ cm/s; IC50 at 24 h [5]: 131 µM; IC50 (Cholinesterase [2]): 0.07 µM; inhibition (Cholinesterase [3]): 97%

Q: For `COc1ccccc1CCN(C)Cc1cccc(OC)c1OCc1ccccc1`, which IC50 (Acetylcholinesterase [1]) is on record?
A: > 10 µM

Q: What about the IC50 (Cholinesterase [2]) of the same compound?
A: 0.8 µM

Q: And the inhibition (Cholinesterase [3])?
A: 85%

Q: With `CCCN(CCc1ccccc1OC)Cc1cccc(OC)c1OCc1ccccc1` as the compound, how does the IC50 (Acetylcholinesterase [1]) read?
A: > 10 µM

Q: What about the IC50 (Cholinesterase [2]) of the same compound?
A: 0.7 µM

Q: What about the inhibition (Cholinesterase [3]) of the same compound?
A: 92%

Q: For `COc1cccc(CNCCc2ccc(O)cc2)c1OCc1ccccc1`, which IC50 (Acetylcholinesterase [1]) is on record?
A: > 10 µM

Q: And the Ratio IC50 (Homo sapiens)?
A: > 42

Q: And the Papp (in vitro)?
A: 19 ×10⁻⁶ cm/s

Q: What about the IC50 (Cholinesterase [2]) of the same compound?
A: 0.2 µM

Q: What about the inhibition (Cholinesterase [3]) of the same compound?
A: 94%

Q: With `CCCN(CCCc1ccc(O)cc1)Cc1cccc(OC)c1OCc1ccccc1` as the compound, how does the IC50 (Acetylcholinesterase [1]) read?
A: > 10 µM

Q: What about the IC50 at 24 h [4] of the same compound?
A: 31 µM

Q: And the Papp (in vitro)?
A: 16 ×10⁻⁶ cm/s

Q: And the IC50 at 24 h [5]?
A: 44 µM

Q: And the IC50 (Cholinesterase [2])?
A: 0.07 µM

Q: What about the inhibition (Cholinesterase [3]) of the same compound?
A: 98%

Q: Which IC50 (Acetylcholinesterase [1]) does the source give for `CCCN(C/C=C/c1ccccc1)Cc1cccc(OC)c1OCc1ccccc1` here?
A: > 10 µM

Q: And the IC50 at 24 h [4]?
A: 36 µM

Q: What about the Papp (in vitro) of the same compound?
A: 41 ×10⁻⁶ cm/s

Q: And the IC50 at 24 h [5]?
A: 174 µM

Q: And the IC50 (Cholinesterase [2])?
A: 0.04 µM

Q: What about the inhibition (Cholinesterase [3]) of the same compound?
A: 97%

Q: With `C=CCN(CCCc1ccccc1)Cc1cccc(OC)c1OCc1ccccc1` as the compound, how does the IC50 (Acetylcholinesterase [1]) read?
A: > 10 µM

Q: What about the IC50 at 24 h [4] of the same compound?
A: > 200 µM

Q: And the Papp (in vitro)?
A: 28 ×10⁻⁶ cm/s

Q: And the IC50 at 24 h [5]?
A: > 200 µM

Q: What about the IC50 (Cholinesterase [2]) of the same compound?
A: 0.04 µM

Q: What about the inhibition (Cholinesterase [3]) of the same compound?
A: 98%

Q: For `CCCN(CCCc1ccc(F)cc1)Cc1cccc(OC)c1OCc1ccccc1`, which IC50 (Acetylcholinesterase [1]) is on record?
A: > 10 µM

Q: What about the IC50 at 24 h [4] of the same compound?
A: 32 µM

Q: And the Papp (in vitro)?
A: 61 ×10⁻⁶ cm/s

Q: And the IC50 at 24 h [5]?
A: 170 µM

Q: What about the IC50 (Cholinesterase [2]) of the same compound?
A: 0.1 µM

Q: And the inhibition (Cholinesterase [3])?
A: 96%

Q: Which results are given for `COc1cccc(CNCCCCc2ccccc2)c1OCc1ccccc1`?
A: IC50 (Acetylcholinesterase [1]): > 10 µM; IC50 (Cholinesterase [2]): 0.2 µM; inhibition (Cholinesterase [3]): 94%

Q: Which IC50 (Acetylcholinesterase [1]) does the source give for `COc1cccc(CNC(C)CCc2ccccc2)c1OCc1ccccc1` (stereo not given) here?
A: > 10 µM

Q: What about the IC50 (Cholinesterase [2]) of the same compound?
A: 0.13 µM

Q: And the inhibition (Cholinesterase [3])?
A: 97%

Q: For `CCCN(CCCc1ccccc1F)Cc1cccc(OC)c1OCc1ccccc1`, which IC50 (Acetylcholinesterase [1]) is on record?
A: > 10 µM

Q: What about the IC50 at 24 h [4] of the same compound?
A: 33 µM

Q: What about the Papp (in vitro) of the same compound?
A: 85 ×10⁻⁶ cm/s

Q: And the IC50 at 24 h [5]?
A: 49 µM

Q: What about the IC50 (Cholinesterase [2]) of the same compound?
A: 0.02 µM

Q: And the inhibition (Cholinesterase [3])?
A: 97%

Q: With `COc1cccc(CN(C)CCCc2ccccc2)c1OCc1ccccc1` as the compound, how does the IC50 (Acetylcholinesterase [1]) read?
A: > 10 µM

Q: What about the IC50 (Cholinesterase [2]) of the same compound?
A: 0.1 µM

Q: What about the inhibition (Cholinesterase [3]) of the same compound?
A: 97%
